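Results reflect a 48-hour exposure of cells in 96-well plates to compound at five concentrations. Abbreviation: GI50, concentration required for 50% inhibition of growth. TGI: concentration producing complete growth inhibition.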
Assays:
Assay in all cases: inhibition of tumour cell growth, NCI panel, 48 h
[1] = test system: KM12 colon
[2] = test system: IGROV1 ovarian
[3] = test system: 786-0 renal
[4] = test system: HS 578T breast
[5] = test system: HCT-15 colon
[6] = test system: SN12C renal
[7] = test system: RPMI-8226 leukemia
[8] = test system: SK-MEL-2 melanoma
[9] = test system: UO-31 renal
[10] = test system: TK-10 renal
[11] = test system: OVCAR-4 ovarian
[12] = test system: SK-MEL-28 melanoma
[13] = test system: MDA-MB-435
[14] = test system: MALME-3M melanoma
[15] = test system: OVCAR-5 ovarian
[16] = test system: MCF7 breast
[17] = test system: SW-620 colon
[18] = test system: SF-539 CNS
[19] = test system: LOX IMVI melanoma
[20] = test system: NCI-H226 lung
[21] = test system: ACHN renal
[22] = test system: SK-MEL-5 melanoma
[23] = test system: BT-549 breast
[24] = test system: U251 CNS
[25] = test system: HOP-92 NSCLC
[26] = test system: K-562 leukemia
[27] = test system: RXF 393 renal
[28] = test system: OVCAR-8 ovarian
[29] = test system: SF-268 CNS

Q: CCCSc1nc(Nc2ccc(S(N)(=O)=O)cc2)c(C#N)c(-c2cc(OC)c(OC)c(OC)c2)n1 was tested. Which GI50 [1] did it give?
A: Its GI50 is 4.77 µM.

Q: What about the TGI [1] of the same molecule?
A: The TGI was over 100 µM.

Q: And the GI50 [2]?
A: Its GI50 is 25.9 µM.

Q: What about the TGI [2] of the same molecule?
A: The TGI was over 100 µM.

Q: And the GI50 [3]?
A: Its GI50 is 10.4 µM.

Q: And the TGI [3]?
A: The TGI was over 100 µM.

Q: What about the GI50 [4] of the same molecule?
A: Its GI50 is 7.33 µM.

Q: What about the TGI [4] of the same molecule?
A: Its TGI is over 100 µM.

Q: And the GI50 [5]?
A: The GI50 was 3.4 µM.

Q: And the TGI [5]?
A: Its TGI is over 100 µM.

Q: And the GI50 [6]?
A: The GI50 was 5.77 µM.

Q: What about the TGI [6] of the same molecule?
A: Its TGI is over 100 µM.

Q: And the GI50 [7]?
A: The GI50 was 3.56 µM.

Q: And the TGI [7]?
A: Its TGI is over 100 µM.

Q: What about the GI50 [8] of the same molecule?
A: Its GI50 is 11.8 µM.

Q: What about the TGI [8] of the same molecule?
A: Its TGI is over 100 µM.

Q: What about the GI50 [9] of the same molecule?
A: Its GI50 is 2.59 µM.

Q: What about the TGI [9] of the same molecule?
A: Its TGI is over 100 µM.

Q: And the GI50 [10]?
A: The GI50 was 16.1 µM.

Q: What about the TGI [10] of the same molecule?
A: The TGI was over 100 µM.

Q: And the GI50 [11]?
A: Its GI50 is 6.39 µM.

Q: And the TGI [11]?
A: Its TGI is over 100 µM.

Q: What about the GI50 [12] of the same molecule?
A: Its GI50 is 7.29 µM.

Q: And the TGI [12]?
A: Its TGI is over 100 µM.

Q: What about the GI50 [13] of the same molecule?
A: Its GI50 is 4.9 µM.

Q: What about the TGI [13] of the same molecule?
A: The TGI was over 100 µM.

Q: And the GI50 [14]?
A: The GI50 was 5.78 µM.

Q: And the TGI [14]?
A: The TGI was 75.4 µM.

Q: What about the GI50 [15] of the same molecule?
A: Its GI50 is 32.7 µM.

Q: And the TGI [15]?
A: Its TGI is over 100 µM.

Q: What about the GI50 [16] of the same molecule?
A: Its GI50 is 4.23 µM.

Q: What about the TGI [16] of the same molecule?
A: Its TGI is over 100 µM.

Q: And the GI50 [17]?
A: Its GI50 is 8.34 µM.

Q: And the TGI [17]?
A: Its TGI is over 100 µM.

Q: What about the GI50 [18] of the same molecule?
A: Its GI50 is 21.4 µM.

Q: And the TGI [18]?
A: Its TGI is over 100 µM.

Q: What about the GI50 [19] of the same molecule?
A: The GI50 was 3.68 µM.

Q: And the TGI [19]?
A: The TGI was over 100 µM.

Q: And the GI50 [20]?
A: Its GI50 is 6.07 µM.

Q: What about the TGI [20] of the same molecule?
A: The TGI was over 100 µM.

Q: What about the GI50 [21] of the same molecule?
A: Its GI50 is 4.88 µM.

Q: And the TGI [21]?
A: The TGI was over 100 µM.

Q: What about the GI50 [22] of the same molecule?
A: Its GI50 is 2.75 µM.

Q: And the TGI [22]?
A: Its TGI is 12.1 µM.

Q: What about the GI50 [23] of the same molecule?
A: Its GI50 is 3.24 µM.

Q: What about the TGI [23] of the same molecule?
A: Its TGI is 32.5 µM.

Q: And the GI50 [24]?
A: Its GI50 is 5.37 µM.

Q: And the TGI [24]?
A: Its TGI is over 100 µM.

Q: And the GI50 [25]?
A: Its GI50 is 3.98 µM.

Q: What about the TGI [25] of the same molecule?
A: The TGI was 63.6 µM.

Q: What about the GI50 [26] of the same molecule?
A: Its GI50 is 3.52 µM.

Q: And the TGI [26]?
A: The TGI was over 100 µM.

Q: And the GI50 [27]?
A: Its GI50 is 2.36 µM.

Q: What about the TGI [27] of the same molecule?
A: Its TGI is 9.67 µM.

Q: And the GI50 [28]?
A: The GI50 was 5 µM.

Q: What about the TGI [28] of the same molecule?
A: The TGI was over 100 µM.

Q: What about the GI50 [29] of the same molecule?
A: Its GI50 is 9.84 µM.

Q: And the TGI [29]?
A: The TGI was over 100 µM.
